Test results from US8785374B2, “Inhibitors of mammalian tight junction opening” (Alba Therapeutics Corporation, priority 2007, dated 2014).
Non-standard residues stand in square brackets, D forms with d. No end group written: not given here. pGlu = O=C1CC[C@@H](C(=O)O)N1

Assays:
[1] = test system: CaCo2 monolayers (tight junctions); experiment: Inhibition of agonist-induced Lucifer Yellow flux through CaCo2 monolayers; conditions: inhibition of the increase in Lucifer Yellow permeability induced by SEQ ID NO:70 (FCIGRL); CaCo2 monolayers
Description: (§1) Measurement of the Inhibition of the Decrease in Trans Epithelial Electric Resistance (TEER) and Epithelial Flux of a Fluorescent Marker Lucifer Yellow
(§2) Antagonists of tight junctions can be identified by their ability to prevent or decrease the enhancement of the flux of compounds (e.g. Lucifer Yellow) through the monolayer induced by agonists of tight junctions (e.g., SEQ ID NO: 70). Antagonists of tight junctions can also be identified by their ability to prevent the decrease in TEER induced by agonists of tight junctions (e.g., SEQ ID NO: 70).
(§3) Tight junction antagonists can be identified using the following method:
(§4) Prepare Modified Hank's Balanced Salt Solution (MHBSS) by obtaining IL bottle of HBSS removing 10 ml of HBSS and replacing it with 10 ml HEPES buffer pH 7.0. Adjust pH to 7.4±0.1 using concentrated NaOH (10N).
(§5) Remove Caco-2 cells from incubator, grown on 12-well, […], polycarbonate Transwell® filters (Corning) and record passage number, date cells seeded and age in days.
(§6) Aspirate cell culture medium from both the apical (AP) and basolateral (BL) compartments, replacing with 0.5 ml and 1.5 ml of MHBSS, respectively. Incubate cells at 37° C. for 30 minutes.
(§7) Prepare a stock solution of the Antagonist Pretreatment Solution by dissolving the appropriate amount of antagonist in MHBSS. Vortex or sonicate the solution until it is clear then adjust pH to 7.4±0.1 using 1N NaOH. Preincubate each filter for 30 min with these solutions at 37° C. and 50 RPM.
(§8) Prepare stock solutions of Antagonist Treatment Solution by dissolving appropriate amounts of antagonist and agonist (for example, a peptide agonist such as a peptide having the sequence FCIGRL (SEQ ID NO: 70)) in 7.5 mM Lucifer Yellow solution in MHBSS. Vortex or sonicate the solution until it is clear then adjust pH to 7.4±0.1 using 1N NaOH.
(§9) Aspirate Antagonist Pretreatment Solution from the apical compartment of each filter (n=3 per condition) and replace with 0.5 ml of control and test solutions.
(§10) Place all plates into incubator set at 37° C. (±0.2), 50 RPM (±5) for a total of 180 minutes.
At t=60, 120 and 180 minutes remove 100 μl from each basolateral compartment and place it in a 96-well plate for Lucifer Yellow analysis, replace with 100 μl of HBSS.
Make a Lucifer Yellow standard curve with the following dilutions (7500 μM, 3750 μM, 750 μM, 375 μM, 75 μM, 37.5 μM, 7.5 μM, 3.75 μM, 0.75 μM) and pipette 100 μL of each into a 96-well plate except for the first three standards mentioned above which require a 1:10 dilution prior to transferring to the 96-well plate.
At t=0 make 1:10 dilutions of each starting Antagonist Treatment Solution mentioned above and pipette 100 μL of each into a 96-well plate.
At t=180 make 1:10 dilutions of Antagonist Treatment Solution from the apical compartment of each filter and pipette 100 μL of each into the 96-well plate.
Analyze each 96-well plate in a Tecan Spectra Fluor Plus using Magellan at 485 and 535 nm.
(§11) Cells: Caco-2 cells passage 40-60 grown on Transwell® plates for 21-28 days
(§12) SEQ ID NO: 70 is a 6-mer peptide tight junction agonist having the sequence FCIGRL. See US patent publication US 2005/0059593 A1. In the following tables + indicates attenuation of the effects of the tight junction agonist were observed and − indicates no attenuation of the effects of the tight junction agonist were observed.

[2] = test system: CaCo2 monolayers (tight junctions); experiment: Inhibition of agonist-induced decrease in trans epithelial electric resistance (TEER) of CaCo2 monolayers; conditions: inhibition of the reduction in TEER induced by SEQ ID NO:70 (FCIGRL); CaCo2 monolayers
Description: as §1, §2, §3, §4, §5, §6
Using the MilliCell®-ERS instrument (Millipore), measure and record the transepithelial electrical resistance (TEER) across each filter and record.
as §7, §8, §9, §10
At t=30, 60, 120 and 180 minutes, measure and record the transepithelial electrical resistance (TEER) across each filter using the MilliCell-ERS instrument.
as §11, §12

| Substance | Reduced LY Permeability [1] | Prevented TEER Reduction [2] |
| --- | --- | --- |
| Gln-Pro-Ala (QPA; Tight junction antagonist) [SEQ ID NO: 9] | + | + |
| Thr-Pro-Gly (TPG; Tight junction antagonist) [SEQ ID NO: 30] | + | − |
| Gly-(d)Pro-Gln (Gly-[dP]-Gln) [SEQ ID NO: 14] | − | − |
| Glp-Pro-Ser ([pGlu]-Pro-Ser) [SEQ ID NO: 56] | − | − |
| Glp-Thr-Gly ([pGlu]-Thr-Gly) [SEQ ID NO: 42] | − | − |
| Glp-Lys-Gly ([pGlu]-Lys-Gly) [SEQ ID NO: 39] | − | − |
| Glp-Pro-Met ([pGlu]-Pro-Met) [SEQ ID NO: 68] | − | + |
| Glp-Pro-His ([pGlu]-Pro-His) [SEQ ID NO: 60] | − | − |
| Glp-Glu-Gly ([pGlu]-Glu-Gly) [SEQ ID NO: 41] | − | − |
| Glp-Pro-Pro ([pGlu]-Pro-Pro) [SEQ ID NO: 57] | − | + |
| Glp-Leu-Gly ([pGlu]-Leu-Gly) [SEQ ID NO: 52] | − | − |
| Ala-Pro-Gly (APG; Tight junction antagonist) [SEQ ID NO: 17] | + | + |
| Glp-Pro-Asn ([pGlu]-Pro-Asn) [SEQ ID NO: 54] | − | + |
| Ala-Pro-Gly (APG; Tight junction antagonist) [SEQ ID NO: 7] | + | + |
| Glp-Arg-Gly ([pGlu]-Arg-Gly) [SEQ ID NO: 47] | − | − |
| VLVQPG [SEQ ID NO: 3] | + | + |
| Glp-Asn-Gly ([pGlu]-Asn-Gly) [SEQ ID NO: 46] | − | − |
| His-Pro-Gly (HPG; Tight junction antagonist) [SEQ ID NO: 18] | + | + |
| Gly-Pro-Gly (GPG; Tight junction antagonist) [SEQ ID NO: 22] | + | + |
| Glp-Pro-Leu ([pGlu]-Pro-Leu) [SEQ ID NO: 61] | − | − |
| Ser-Pro-Gly (SPG; Tight junction antagonist) [SEQ ID NO: 28] | + | + |
| Gln-Ala-Gly (QAG; Tight junction antagonist) [SEQ ID NO: 8] | + | + |
| Gln-(d)Pro-Gly (Gln-[dP]-Gly) [SEQ ID NO: 11] | + | + |
| Glp-Trp-Gly ([pGlu]-Trp-Gly) [SEQ ID NO: 49] | − | − |
| Ile-Pro-Gly (IPG; Tight junction antagonist) [SEQ ID NO: 31] | + | + |
